Test results published in ChEMBL document CHEMBL1201862, “PubChem BioAssay data set” (2004).
The source made the active and inactive calls.

What was measured:
Exodeoxyribonuclease V = biological target: T1, Exodeoxyribonuclease V (Escherichia coli (strain K12), UniProt P04993+P07648+P08394); assay: E. coli RecBCD inhibitors, dose response, counter-screen for AddAB inhibitor project, absorbance, V66 E. coli, mutant T4 phage (AID 492957); type: functional, cell-based, Escherichia coli str. K-12 substr. MG1655
T1 sequence (P04993 whole entry): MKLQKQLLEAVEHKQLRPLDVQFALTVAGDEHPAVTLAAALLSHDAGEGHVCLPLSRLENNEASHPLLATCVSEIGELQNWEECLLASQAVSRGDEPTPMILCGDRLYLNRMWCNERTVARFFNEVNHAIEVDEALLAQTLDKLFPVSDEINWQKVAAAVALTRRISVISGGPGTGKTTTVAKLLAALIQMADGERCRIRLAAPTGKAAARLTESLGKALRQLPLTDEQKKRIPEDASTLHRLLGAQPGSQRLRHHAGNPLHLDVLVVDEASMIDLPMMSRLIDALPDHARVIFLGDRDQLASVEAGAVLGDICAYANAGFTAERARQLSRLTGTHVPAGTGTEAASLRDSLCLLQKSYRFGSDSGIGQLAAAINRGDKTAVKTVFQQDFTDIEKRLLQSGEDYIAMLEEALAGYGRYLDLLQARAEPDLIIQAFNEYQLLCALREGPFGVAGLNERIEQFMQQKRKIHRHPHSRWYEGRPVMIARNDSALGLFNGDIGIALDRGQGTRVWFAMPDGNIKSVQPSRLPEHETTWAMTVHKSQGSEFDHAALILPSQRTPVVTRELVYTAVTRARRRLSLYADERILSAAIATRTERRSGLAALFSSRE
T1 sequence (P07648 whole entry): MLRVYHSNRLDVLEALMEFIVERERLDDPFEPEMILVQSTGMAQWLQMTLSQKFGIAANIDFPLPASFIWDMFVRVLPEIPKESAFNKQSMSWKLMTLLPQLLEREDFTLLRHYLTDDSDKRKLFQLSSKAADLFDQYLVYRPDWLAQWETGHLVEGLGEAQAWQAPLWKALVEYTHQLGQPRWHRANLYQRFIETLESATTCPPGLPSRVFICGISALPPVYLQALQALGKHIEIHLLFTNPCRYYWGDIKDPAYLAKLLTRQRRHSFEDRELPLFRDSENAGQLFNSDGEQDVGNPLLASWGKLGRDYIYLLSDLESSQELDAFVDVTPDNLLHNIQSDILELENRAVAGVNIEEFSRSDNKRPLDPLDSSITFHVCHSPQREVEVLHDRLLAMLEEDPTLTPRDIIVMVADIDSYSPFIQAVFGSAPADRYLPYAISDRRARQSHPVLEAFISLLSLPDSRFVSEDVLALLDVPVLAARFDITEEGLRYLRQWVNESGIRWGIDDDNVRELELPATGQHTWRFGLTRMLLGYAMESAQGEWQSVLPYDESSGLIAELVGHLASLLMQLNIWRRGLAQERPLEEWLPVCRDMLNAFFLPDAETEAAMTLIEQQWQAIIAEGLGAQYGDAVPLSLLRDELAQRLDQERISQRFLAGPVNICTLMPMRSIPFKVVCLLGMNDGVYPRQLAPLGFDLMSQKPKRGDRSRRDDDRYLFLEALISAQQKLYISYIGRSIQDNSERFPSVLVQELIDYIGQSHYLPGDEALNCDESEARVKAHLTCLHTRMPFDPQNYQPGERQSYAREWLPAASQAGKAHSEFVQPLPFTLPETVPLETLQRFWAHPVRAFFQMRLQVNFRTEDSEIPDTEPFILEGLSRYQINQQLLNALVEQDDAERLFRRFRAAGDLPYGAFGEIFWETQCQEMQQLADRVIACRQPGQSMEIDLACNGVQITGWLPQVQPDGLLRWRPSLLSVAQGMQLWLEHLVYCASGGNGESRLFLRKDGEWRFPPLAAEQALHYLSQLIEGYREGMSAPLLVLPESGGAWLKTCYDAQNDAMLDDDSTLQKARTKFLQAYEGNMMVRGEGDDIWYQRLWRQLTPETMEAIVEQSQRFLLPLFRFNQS
T1 sequence (P08394 whole entry): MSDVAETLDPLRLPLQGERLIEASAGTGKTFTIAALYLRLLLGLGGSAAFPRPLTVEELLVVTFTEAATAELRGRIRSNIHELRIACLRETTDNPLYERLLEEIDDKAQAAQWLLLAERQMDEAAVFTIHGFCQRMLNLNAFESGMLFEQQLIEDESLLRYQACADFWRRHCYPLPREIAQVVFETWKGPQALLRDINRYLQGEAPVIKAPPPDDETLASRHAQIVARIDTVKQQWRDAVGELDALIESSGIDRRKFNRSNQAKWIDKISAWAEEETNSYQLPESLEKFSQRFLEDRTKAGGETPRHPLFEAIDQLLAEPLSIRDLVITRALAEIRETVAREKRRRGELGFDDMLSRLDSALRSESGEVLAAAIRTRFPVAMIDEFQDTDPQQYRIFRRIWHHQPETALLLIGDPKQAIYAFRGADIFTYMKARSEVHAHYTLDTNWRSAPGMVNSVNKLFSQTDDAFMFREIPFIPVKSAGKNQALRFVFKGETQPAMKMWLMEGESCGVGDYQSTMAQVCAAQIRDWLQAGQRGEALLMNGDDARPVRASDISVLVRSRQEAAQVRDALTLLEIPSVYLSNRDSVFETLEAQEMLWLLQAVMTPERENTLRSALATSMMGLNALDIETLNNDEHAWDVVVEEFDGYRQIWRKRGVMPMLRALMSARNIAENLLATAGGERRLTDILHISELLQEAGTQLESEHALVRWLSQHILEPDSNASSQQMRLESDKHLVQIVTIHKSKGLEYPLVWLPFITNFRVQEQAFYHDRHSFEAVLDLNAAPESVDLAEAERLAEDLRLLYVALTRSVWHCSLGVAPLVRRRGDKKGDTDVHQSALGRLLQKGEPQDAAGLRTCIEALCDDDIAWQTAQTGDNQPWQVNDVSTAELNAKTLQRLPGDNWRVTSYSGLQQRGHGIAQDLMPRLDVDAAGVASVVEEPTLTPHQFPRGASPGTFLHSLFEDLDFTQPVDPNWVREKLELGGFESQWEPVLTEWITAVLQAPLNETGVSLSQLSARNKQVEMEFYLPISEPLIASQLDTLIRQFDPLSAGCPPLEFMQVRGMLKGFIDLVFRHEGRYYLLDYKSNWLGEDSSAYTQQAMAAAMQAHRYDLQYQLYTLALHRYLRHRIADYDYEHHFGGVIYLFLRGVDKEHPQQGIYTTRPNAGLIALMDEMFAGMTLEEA

[1] = Counterscreen for AddAB inhibitors: absorbance-based bacterial cell-based high throughput dose response assay for inhibitors of bacterial viability. [Related pubchem assays (depositor defined):AID435030, AID449728, AID449731, AID488942, AID488955, AID488956]; type: functional
[2] = cytotoxicity in MIN6 insulinoma cells, dose response, cytotoxicity control, cell-based, mouse insulinoma (AID 2122); type: functional;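 also: confirmatory high-throughput counterscreen run to flag cytotoxic compounds; mouse MIN-6 beta cells carrying an insulin promoter eGFP reporter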
[3] = insulin promoter down-regulators in MIN6 cells, imaging, high-content screening, mouse beta cells (AID 1628); type: functional
[4] = biological target: T2, Rac GTPase-activating protein 1 (Homo sapiens, UniProt Q9H0H5); assay: MgcRacGAP GTPase-activating activity inhibitors, confirmation, biochemical, ADP Hunter fluorescence, primary and confirmatory (AID 624330); type: functional
T2 sequence (Q9H0H5 whole entry): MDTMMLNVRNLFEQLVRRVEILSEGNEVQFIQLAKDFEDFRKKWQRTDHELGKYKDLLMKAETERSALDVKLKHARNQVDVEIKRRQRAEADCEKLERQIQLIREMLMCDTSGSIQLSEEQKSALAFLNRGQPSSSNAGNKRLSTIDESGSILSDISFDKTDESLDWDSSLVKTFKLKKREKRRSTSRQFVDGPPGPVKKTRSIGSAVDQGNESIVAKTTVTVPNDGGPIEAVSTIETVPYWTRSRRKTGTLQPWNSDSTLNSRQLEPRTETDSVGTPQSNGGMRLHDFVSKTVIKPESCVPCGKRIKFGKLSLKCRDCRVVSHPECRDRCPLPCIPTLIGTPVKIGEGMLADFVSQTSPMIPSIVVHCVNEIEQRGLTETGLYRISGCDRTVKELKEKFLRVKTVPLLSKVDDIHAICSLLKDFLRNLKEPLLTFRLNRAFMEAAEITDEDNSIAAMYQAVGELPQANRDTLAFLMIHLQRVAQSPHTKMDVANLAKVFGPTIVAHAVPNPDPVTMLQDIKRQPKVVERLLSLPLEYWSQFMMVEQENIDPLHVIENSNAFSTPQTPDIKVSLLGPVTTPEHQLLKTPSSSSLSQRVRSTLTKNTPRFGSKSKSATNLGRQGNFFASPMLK

Large T antigen = Large T antigen (Simian virus 40, UniProt P03070); type: functional, Betapolyomavirus macacae;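 also: Confirmatory-stage PubChem screen for compounds that inhibit SV40 T antigen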
Sequence of Large T antigen (P03070 whole entry): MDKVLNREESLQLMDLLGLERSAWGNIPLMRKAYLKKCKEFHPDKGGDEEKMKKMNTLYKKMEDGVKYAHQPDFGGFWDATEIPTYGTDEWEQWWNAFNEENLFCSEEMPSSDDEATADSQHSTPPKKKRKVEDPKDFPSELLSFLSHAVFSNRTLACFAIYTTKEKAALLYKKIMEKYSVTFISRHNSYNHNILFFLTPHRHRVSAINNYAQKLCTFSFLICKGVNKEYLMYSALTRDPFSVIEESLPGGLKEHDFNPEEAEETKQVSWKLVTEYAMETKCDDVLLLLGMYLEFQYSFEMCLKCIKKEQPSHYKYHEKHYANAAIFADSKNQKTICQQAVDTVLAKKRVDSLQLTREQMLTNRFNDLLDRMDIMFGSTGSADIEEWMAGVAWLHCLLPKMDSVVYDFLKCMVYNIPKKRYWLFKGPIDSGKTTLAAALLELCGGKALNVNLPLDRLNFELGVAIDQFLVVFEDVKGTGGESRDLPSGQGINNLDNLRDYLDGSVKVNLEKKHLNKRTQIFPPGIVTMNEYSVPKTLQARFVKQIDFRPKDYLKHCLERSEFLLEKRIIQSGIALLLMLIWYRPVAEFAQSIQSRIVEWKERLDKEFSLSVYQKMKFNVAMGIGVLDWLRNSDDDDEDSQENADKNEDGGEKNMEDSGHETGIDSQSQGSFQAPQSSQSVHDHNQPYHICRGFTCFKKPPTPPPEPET

[5] = biological target: T3, Heat shock factor protein 1 (Mus musculus, UniProt P38532); assay: inhibition of MG132-induced HSE-luciferase signal, confirmation, cell-based, NIH3T3, luminescence, dose retest (AID 2382); type: functional;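 also: NIH3T3 fibroblasts with HSF1-driven luciferase reporter stressed by proteasome inhibitor MG132; luminescence from HSF1-driven luciferase expression after 8 hours of MG132 stress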
T3 sequence (P38532 whole entry): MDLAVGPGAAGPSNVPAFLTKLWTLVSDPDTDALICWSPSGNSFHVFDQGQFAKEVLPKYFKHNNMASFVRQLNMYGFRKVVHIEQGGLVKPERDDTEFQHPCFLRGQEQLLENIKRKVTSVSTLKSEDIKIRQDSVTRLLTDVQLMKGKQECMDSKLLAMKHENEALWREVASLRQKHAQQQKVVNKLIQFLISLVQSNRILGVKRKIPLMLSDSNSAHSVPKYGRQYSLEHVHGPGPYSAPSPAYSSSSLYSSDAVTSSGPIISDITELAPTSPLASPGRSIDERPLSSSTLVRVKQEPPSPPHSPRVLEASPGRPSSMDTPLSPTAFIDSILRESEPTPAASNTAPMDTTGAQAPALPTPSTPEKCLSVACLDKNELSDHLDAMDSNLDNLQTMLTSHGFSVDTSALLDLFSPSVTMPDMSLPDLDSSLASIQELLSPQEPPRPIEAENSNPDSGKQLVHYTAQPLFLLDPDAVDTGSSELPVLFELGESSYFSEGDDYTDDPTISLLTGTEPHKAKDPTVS

[6] = biological target: Glucose-6-phosphate 1-dehydrogenase (Homo sapiens, UniProt P11413); assay: human G6PD enzyme inhibitors, dose response, selectivity assay for P. falciparum G6PD inhibitor project, biochemical, fluorescence (AID 504792); type: functional
Sequence of Glucose-6-phosphate 1-dehydrogenase (P11413 whole entry): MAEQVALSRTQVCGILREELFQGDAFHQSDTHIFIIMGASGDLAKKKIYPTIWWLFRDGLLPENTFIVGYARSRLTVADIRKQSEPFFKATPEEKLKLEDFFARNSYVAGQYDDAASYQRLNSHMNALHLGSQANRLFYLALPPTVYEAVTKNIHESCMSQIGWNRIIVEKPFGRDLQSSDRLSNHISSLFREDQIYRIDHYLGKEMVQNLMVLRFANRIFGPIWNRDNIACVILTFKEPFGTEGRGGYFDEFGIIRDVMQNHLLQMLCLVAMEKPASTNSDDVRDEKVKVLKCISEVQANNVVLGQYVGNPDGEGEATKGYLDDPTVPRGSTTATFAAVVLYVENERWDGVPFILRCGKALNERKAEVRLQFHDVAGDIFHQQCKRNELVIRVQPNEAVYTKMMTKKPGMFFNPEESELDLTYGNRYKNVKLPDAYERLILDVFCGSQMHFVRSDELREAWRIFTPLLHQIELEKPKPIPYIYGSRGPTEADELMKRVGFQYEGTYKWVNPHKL

[7] = Luminescence Cell-Based Dose Response HTS to Identify Inhibitors of 5'UTR Stem-Loop Driven Prion Protein mRNA Translation in H4 Neuroglioblastoma Cells. [Related pubchem assays: 1827 (Project Summary), 1813 (Primary HTS)]; type: functional
[8] = inhibitors of firefly luciferase expression or activity, dose response, H4 neuroglioma cells, luminescence (AID 1990); type: functional, cell-based
[9] = inhibitors of SNCA 5'UTR-driven reporter translation, confirmation, H4 neuroglioma cells, luminescence (AID 1988); type: functional, cell-based
BJ [10] = assay: cytotoxicity toward BJ-TERT fibroblasts, dose response, cell-based, RAS-independent, luminescence (AID 1933); type: functional; details: Homo sapiens
INS1 = assay: beta cell apoptosis inhibitors, cytokine rescue, dose response, luminescence, retest (AID 449756); type: functional, cell-based; details: Rattus norvegicus;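 also: cell death triggered by IL-1 beta plus TNF-alpha plus IFN-gamma mixture; protective hits raise ATP signal compared with cytokine alone wells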
BJ [11] = assay: cytotoxicity toward BJ-TERT-LT-ST fibroblasts, dose response, cell-based, RAS-independent, luminescence (AID 1935); type: functional; details: Homo sapiens;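 also: BJ fibroblasts immortalized with TERT plus LT and ST oncogenes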
BJ [12] = assay: cells; type: functional, cell-based; details: Homo sapiens
[13] = cytotoxicity toward DRD oncogenic fibroblasts, dose response, cell-based, non-viral oncogenic, luminescence (AID 1934); type: functional; details: Homo sapiens
BJ [14] = assay: cytotoxicity toward Ras-transformed BJeLR fibroblasts, dose response, cell-based, alamar blue fluorescence, cherrypicked samples (AID 2631); type: functional; details: Homo sapiens;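 also: confirmatory dose-response assay in RAS-dependent BJ fibroblasts engineered with TERT, LT and ST, with cytotoxicity read by fluorescence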

Compound: CC(C)Oc1ccc(Cc2cnc(N)nc2N)cc1
- IC50 (Exodeoxyribonuclease V): 56.3 µM (inactive)
- IC50 [1]: 36.5 µM (inactive)

Compound: CC(C)Cc1nc2oc3c(NCC4CCCO4)ncnc3c2c2c1CCC2 (stereo unspecified)
- IC50 [2]: 4.96 µM (active)
- IC50 [3]: 1.4 µM (active)

Compound: CC1(C)OC(=O)C(N=Nc2ccc(O)cc2)=C(O)O1
- IC50 [4]: 20.9 µM (active)
- IC50 (Large T antigen): 6.72 µM (active)
- IC50 (Exodeoxyribonuclease V): > 119 µM (inactive)
- IC50 [1]: > 119 µM (inactive)

Compound: Cc1nc2ccccn2c1-c1ccnn1S(=O)(=O)c1ccc(F)cc1
- EC50 [5]: > 195 µM (not active)
- IC50 [6]: > 80 µM (inactive)

Compound: CC(C)CCNc1nnnc2c1sc1nc(N3CCOCC3)c3c(c12)CC(C)(C)SC3
- EC50 [7]: > 120 µM (not active)
- EC50 [8]: 27.9 µM (active)
- IC50 [2]: 12.5 µM (inactive)
- IC50 [3]: 2.29 µM (active)
- EC50 [9]: > 120 µM (not active)

Compound: CC(=O)Nc1ccc(NC(=O)CN(c2cccc([N+](=O)[O-])c2)S(C)(=O)=O)cc1
- EC50 (BJ [10]): > 150 µM (not active)
- AC50 (INS1): 6.91 µM (active)
- EC50 (BJ [11]): > 150 µM (inconclusive)
- EC50 (BJ [12]): 3.09 µM (inconclusive)
- EC50 [13]: > 150 µM (inconclusive)
- EC50 (BJ [14]): 11.8 µM (active)
